Reference: ChEMBL document CHEMBL4304805, “Antibacterial activity of 2-amino-4-hydroxypyrimidine-5-carboxylates and binding to Burkholderia pseudomallei 2-C-methyl-d-erythritol-2,4-cyclodiphosphate synthase” (Bioorg Med Chem Lett, 2019)

Tests used:
Assay type in all cases: functional
Details in all cases: read-out: DIZ
Pseudomonas aeruginosa = test: Antibacterial activity against Pseudomonas aeruginosa at 0.5 mM by Kirby Bauer disk diffusion method
[1] = system: Burkholderia thailandensis; test: Antibacterial activity against Burkholderia thailandensis at 0.5 mM by Kirby Bauer disk diffusion method
Corynebacterium xerosis = test: Antibacterial activity against Corynebacterium xerosis at 0.5 mM by Kirby Bauer disk diffusion method
Bacillus cereus = test: Antibacterial activity against Bacillus cereus at 0.5 mM by Kirby Bauer disk diffusion method
[2] = system: Corynebacterium pseudodiphtheriticum; test: Antibacterial activity against Corynebacterium pseudodiphtheriticum at 0.5 mM by Kirby Bauer disk diffusion method
Klebsiella pneumoniae = test: Antibacterial activity against Klebsiella pneumoniae at 0.5 mM by Kirby Bauer disk diffusion method
Micrococcus luteus = test: Antibacterial activity against Micrococcus luteus at 0.5 mM by Kirby Bauer disk diffusion method
Escherichia coli = test: Antibacterial activity against Escherichia coli at 0.5 mM by Kirby Bauer disk diffusion method
[3] = system: Mycolicibacterium smegmatis; test: Antibacterial activity against Mycobacterium smegmatis at 0.5 mM by Kirby Bauer disk diffusion method

Row | Structure (SMILES) | zone of inhibition at 500 µM (Pseudomonas aeruginosa) [mm] | zone of inhibition at 500 µM [1] [mm] | zone of inhibition at 500 µM (Corynebacterium xerosis) [mm] | zone of inhibition at 500 µM (Bacillus cereus) [mm] | zone of inhibition at 500 µM [2] [mm] | zone of inhibition at 500 µM (Klebsiella pneumoniae) [mm] | zone of inhibition at 500 µM (Micrococcus luteus) [mm] | zone of inhibition at 500 µM (Escherichia coli) [mm] | zone of inhibition at 500 µM [3] [mm]
1 | O=C(O)c1cnc(NCCc2ccncc2)nc1O | 0 | 10 | – | – | – | – | – | – | –
2 | CCOC(=O)c1cnc(Nc2ccc(-c3ccncc3)cc2)nc1O | 0 | 0 | 0 | 0 | 0 | 0 | 0 | 0 | 16
3 | O=C(O)c1cnc(NCc2ccc(F)cc2)nc1O | 0 | 12 | 0 | 12 | 0 | 0 | 0 | 0 | 0
4 | CCOC(=O)c1cnc(Nc2ccc(-c3ccccc3)cc2)nc1O | 0 | 0 | 0 | 11 | 0 | 0 | 0 | 0 | 0
5 | O=C(O)c1cnc(Nc2ccccc2)nc1O | 0 | 0 | 0 | 0 | 0 | 0 | 0 | 0 | 15
6 | CCOC(=O)c1cnc(NCCc2ccc(Cl)c(Cl)c2)nc1O | 0 | 0 | 0 | 10 | 0 | 0 | 0 | 0 | 0
7 | O=C(O)c1cnc(NCCc2ccccn2)nc1O | 17 | 10 | 0 | 7 | 0 | 7 | 15 | 0 | 17
8 | CCOC(=O)c1cnc(NCCc2ccc(Cl)cc2)nc1O | 0 | 0 | – | 7 | – | – | – | – | –
9 | CCOC(=O)c1cnc(Nc2ccc(CC(=O)O)cc2)nc1O | 0 | 8 | 0 | 11 | 0 | 9 | 0 | 10 | 0
10 | O=C(O)c1cnc(NCCc2ccc(Cl)cc2)nc1O | 19 | 12 | 0 | – | 0 | 0 | 0 | 0 | 14
11 | CCOC(=O)c1cnc(NCCc2ccccc2Cl)nc1O | 0 | 12 | 0 | 9 | 0 | 0 | 0 | 0 | 15
12 | O=C(O)c1cnc(NCc2ccc(Cl)nc2)nc1O | 10 | 12 | – | – | – | – | – | – | –
13 | CCOC(=O)c1cnc(NCc2ccc(Cl)c(Cl)c2)nc1O | 0 | 0 | 0 | 12 | 0 | 0 | 0 | 0 | 0
14 | CCOC(=O)c1cnc(NCCc2ccc(F)cc2)nc1O | 11 | 9 | 0 | 11 | 0 | 0 | 0 | 0 | 14
15 | CCOC(=O)c1cnc(NCCc2cccc(F)c2)nc1O | 0 | 0 | 0 | 0 | 0 | 0 | 0 | 0 | 0
16 | CCOC(=O)c1cnc(NCc2ccc(Cl)nc2)nc1O | 0 | 9 | – | 10 | – | – | – | – | –

Row | Structure (SMILES) | zone of inhibition at 500 µM (Pseudomonas aeruginosa) [mm] | zone of inhibition at 500 µM [1] [mm] | zone of inhibition at 500 µM (Corynebacterium xerosis) [mm] | zone of inhibition at 500 µM (Bacillus cereus) [mm] | zone of inhibition at 500 µM [2] [mm] | zone of inhibition at 500 µM (Klebsiella pneumoniae) [mm] | zone of inhibition at 500 µM (Micrococcus luteus) [mm] | zone of inhibition at 500 µM (Escherichia coli) [mm] | zone of inhibition at 500 µM [3] [mm]
17 | CCOC(=O)c1cnc(NCCc2ccncc2)nc1O | 0 | 4 | – | 8 | – | – | – | – | –
18 | CCOC(=O)c1cnc(NCc2ccccc2Cl)nc1O | 0 | 0 | 0 | 10 | 0 | 0 | 15 | 0 | 0
19 | CCOC(=O)c1cnc(NCc2cc(Cl)ccc2Cl)nc1O | 0 | 9 | 0 | 13 | 0 | 0 | 14 | 0 | 0
20 | CCOC(=O)c1cnc(Nc2ccc3cn[nH]c3c2)nc1O | 12 | 11 | 7 | 10 | 0 | 12 | 0 | 7 | 17
21 | CCOC(=O)c1cnc(NCCc2ccc(Cl)cc2Cl)nc1O | 0 | 11 | 0 | 0 | 0 | 0 | 0 | 0 | 0
22 | O=C(O)c1cnc(NCCc2ccc(Cl)c(Cl)c2)nc1O | 0 | 11 | 0 | 13 | 0 | 8 | 0 | 0 | 11
23 | CCOC(=O)c1cnc(Nc2cccc(-c3ccccc3)c2)nc1O | 0 | 0 | 0 | 15 | 0 | 0 | 0 | 0 | 15
24 | CCOC(=O)c1cnc(NCCc2ccccn2)nc1O | 0 | 0 | – | 8 | – | – | – | – | –
25 | CCOC(=O)c1cnc(NCc2ccc(F)cc2)nc1O | 0 | 8 | 0 | 19 | 0 | 0 | 0 | 0 | 0
26 | CCOC(=O)c1cnc(Nc2ccc(N3CCCCC3)cc2)nc1O | 13 | 14 | 0 | 15 | 0 | 13 | 0 | 19 | 16
27 | O=C(O)c1cnc(Nc2ccc3cn[nH]c3c2)nc1O | 0 | 0 | 0 | 9 | 0 | 9 | 0 | 0 | 16
28 | CCOC(=O)c1cnc(NCC2CCCO2)nc1O (centres undefined) | 0 | 11 | 0 | 0 | 0 | 0 | 0 | 0 | 15
29 | O=C(O)c1cnc(NCC2CCCO2)nc1O (centres undefined) | 0 | 7 | 0 | 0 | 0 | 0 | 0 | 0 | 0
30 | CCOC(=O)c1cnc(Nc2ccc3[nH]ncc3c2)nc1O | 10 | 8 | 0 | 10 | 0 | 0 | 0 | 0 | 10
31 | CCOC(=O)c1cnc(Nc2ccc(I)cc2)nc1O | 0 | 0 | – | 13 | – | – | – | – | –
